The text below walks through data of PubChem BioAssay (NCI).

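Results reflect a 48-hour exposure of cells in 96-well plates to compound at five concentrations. GI50: concentration for 50% inhibition of growth. TGI: total growth inhibition.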

Test systems include SK-MEL-2 melanoma; SK-OV-3 ovarian; SNB-75 CNS; NCI-H522 lung; CAKI-1 renal; LOX IMVI melanoma; SNB-19 CNS; ACHN renal; NCI-H226 lung.
Assay in all cases: DTP human tumour cell line panel, 48 h

As usually defined, the TGI is the concentration at which net growth stops. A lower TGI goes with more potent growth arrest. Take `N#Cc1c(-c2ccco2)cc(-c2ccc(NCc3nc4ccccc4[nH]3)cc2)nc1N`: the TGI in the assay on SK-MEL-2 melanoma was 40.3 µM; with SK-OV-3 ovarian, more than 100 µM; in the assay on SNB-75 CNS, 91.6 µM; in the assay on NCI-H522 lung, 55.5 µM; with CAKI-1 renal, more than 100 µM; in the assay with LOX IMVI melanoma, 32.7 µM. The TGI in the assay with SNB-19 CNS and in the assay with ACHN renal was more than 100 µM each time.
As to `COC(=O)C(CCCC1(c2ccccc2)OCCO1)C(C)=O` (configuration not stated), the TGI in the assay on SK-MEL-2 melanoma, in the assay on SK-OV-3 ovarian, with SNB-75 CNS, with NCI-H522 lung, with NCI-H226 lung and in the assay on LOX IMVI melanoma was more than 100 µM throughout. Further, the TGI in the assay on SNB-19 CNS and in the assay with ACHN renal was more than 100 µM throughout.
Consider `COc1cccc(NC(=S)Nn2c(C)nc3ccccc3c2=O)c1`, for which the concentration for total growth inhibition (TGI) in the assay on SK-MEL-2 melanoma, with SK-OV-3 ovarian, in the assay with SNB-75 CNS, in the assay on NCI-H522 lung, with NCI-H226 lung and in the assay on CAKI-1 renal was more than 100 µM in each case. The TGI in the assay on LOX IMVI melanoma and in the assay with ACHN renal was more than 100 µM each time.
As to `CCCCc1c2c(nc3c1CCCC3O)/C(=C/c1ccccc1)CCC2` (configuration not stated), the TGI in the assay on SK-MEL-2 melanoma was 51.7 µM; in the assay with SK-OV-3 ovarian, more than 100 µM; in the assay on SNB-75 CNS, more than 100 µM; in the assay with NCI-H522 lung it was 52.5 µM; with NCI-H226 lung, 68 µM; with LOX IMVI melanoma, 34.5 µM. Besides, the TGI in the assay on SNB-19 CNS and with ACHN renal was more than 100 µM each time.
Take `Nc1nc(SCCNC(=O)CCc2ccc(O)cc2)nc2c1ncn2C1OC(CO)C(O)C1O` (configuration not stated): the TGI in the assay on SK-MEL-2 melanoma, in the assay with SK-OV-3 ovarian, with SNB-75 CNS, with NCI-H522 lung, in the assay with NCI-H226 lung and with CAKI-1 renal was more than 203 µM in each case. Further, the TGI in the assay on LOX IMVI melanoma, in the assay with SNB-19 CNS and in the assay on ACHN renal was more than 203 µM throughout.
Turning to `Clc1ccc(SCCSCCCCCCCCCCSCCSc2ccc(Cl)cc2)cc1`, the TGI in the assay with SK-MEL-2 melanoma, with SK-OV-3 ovarian, in the assay with SNB-75 CNS, in the assay with NCI-H522 lung, in the assay with NCI-H226 lung and in the assay with CAKI-1 renal was more than 100 µM throughout. For the same molecule, the TGI with LOX IMVI melanoma, with SNB-19 CNS and in the assay on ACHN renal was more than 100 µM throughout.
For the molecule `Nc1c(-c2nc3ccccc3s2)c2ccc([N+](=O)[O-])cc2c(=O)n1-c1cccc(C(=O)O)c1`, the TGI with SK-MEL-2 melanoma was 75.4 µM; in the assay with SNB-75 CNS, 85.4 µM; in the assay with NCI-H522 lung it was more than 100 µM; in the assay with NCI-H226 lung it was 71.5 µM; with CAKI-1 renal, 80.3 µM; in the assay with LOX IMVI melanoma it was more than 100 µM. Besides, the TGI was 52 µM with SNB-19 CNS and more than 100 µM with ACHN renal.
Consider `COc1cc2c(c(C)c1O)[C@H]1COc3ccccc3[C@H]1O2`, for which the TGI in the assay on SK-MEL-2 melanoma is more than 100 µM; in the assay with SK-OV-3 ovarian, more than 100 µM; in the assay with SNB-75 CNS it was 23.7 µM; in the assay on NCI-H522 lung it was 13.5 µM; in the assay with NCI-H226 lung, 34.5 µM; with CAKI-1 renal, 30 µM. Besides, the TGI in the assay on LOX IMVI melanoma is 14.7 µM; with SNB-19 CNS, 26.7 µM; in the assay on ACHN renal it was more than 100 µM.
Turning to `Cc1cccc2c1Oc1ccccc1C2NC(=O)c1ccc([N+](=O)[O-])cc1` (configuration not stated), the TGI was more than 100 µM in the assay with SK-MEL-2 melanoma; more than 100 µM with NCI-H522 lung; 63.9 µM with NCI-H226 lung; more than 100 µM in the assay on CAKI-1 renal; more than 100 µM in the assay on LOX IMVI melanoma; more than 100 µM in the assay with SNB-19 CNS. The TGI in the assay with ACHN renal is more than 100 µM.
`COC(=O)C1=C(C(=O)OC)C2(OC(C)=O)c3ccccc3-c3ccccc3C12` (configuration not stated): the TGI in the assay on SK-MEL-2 melanoma came to 29.2 µM; with SK-OV-3 ovarian, 29.1 µM; in the assay with SNB-75 CNS, 24.4 µM; with NCI-H522 lung it was 2.8 µM; with NCI-H226 lung, 31.2 µM; in the assay with CAKI-1 renal it was 6.08 µM. Besides, the TGI in the assay on LOX IMVI melanoma is 9.51 µM; in the assay on SNB-19 CNS, more than 55 µM; in the assay on ACHN renal, 6.48 µM.
What is called GI50 is the concentration that inhibits growth by half. Regarding `NCCCNc1nc2ccccc2c2c(=O)c3cc(C(F)(F)F)ccc3sc12`, the GI50 with SK-MEL-2 melanoma was 1.93 µM; in the assay with SNB-75 CNS it was 1.53 µM; in the assay with CAKI-1 renal, 1.51 µM; in the assay on ACHN renal, 1.59 µM. For the same molecule, the TGI came to 3.82 µM in the assay with SK-MEL-2 melanoma, 2.96 µM in the assay with SNB-75 CNS, 2.84 µM in the assay on CAKI-1 renal and 2.94 µM with ACHN renal.
Regarding `CCCn1c(SCC)c2ccccc2c1-c1nc(F)nc(F)n1`, the TGI in the assay with SK-MEL-2 melanoma, with NCI-H522 lung, in the assay with NCI-H226 lung, with CAKI-1 renal, in the assay on LOX IMVI melanoma and in the assay with SNB-19 CNS was more than 100 µM in each case. For the same molecule, the TGI in the assay with ACHN renal was more than 100 µM.
Consider `CSc1nc(-c2cc3c(c(SC)n2)CCCCC3)cc2c1CCCCC2`, for which the TGI in the assay on SK-MEL-2 melanoma is more than 100 µM; in the assay on SK-OV-3 ovarian, more than 100 µM; with SNB-75 CNS, more than 100 µM; with NCI-H522 lung, 90.2 µM; in the assay with NCI-H226 lung it was more than 100 µM; in the assay with CAKI-1 renal, more than 100 µM. The TGI with LOX IMVI melanoma, in the assay with SNB-19 CNS and in the assay with ACHN renal was more than 100 µM in each case.
